Literature values, collected in US20110092602A1 (priority 2008, published 2011).
Read-outs that look alike come from different tables or passages of the source.

Columns and labels:
[1] = not given; remark: listed apart in the source
[2] = pH 7

SMILES	antagonism of analgesia by the opiate antagonist naloxone (several animals tests)	affinity of binding to μ-opioid receptors (μ-opioid receptors)	solubility ([1]; ethanol)	solubility ([1]; water)	n-octanol/water log partition coefficient (logP) [2]	potency in producing analgesia relative to tramadol (animal models)	potency in μ-opioid binding relative to tramadol (μ-opioid receptors; animal models) [times]
COc1cccc(C2(O)CCCCC2CN(C)C)c1 (centres unmarked) [Tramadol, 2-dimethylaminomethyl-1-(3-methoxyphenyl)cyclohexanol]	only partially antagonized	low affinity					
COc1cccc([C@]2(O)CCCC[C@H]2CN(C)C)c1.Cl (racemic) [Tramadol hydrochloride, (±)cis-2-[(dimethylamino)methyl]-1-(3-methoxyphenyl)cyclohexanol hydrochloride]			readily soluble	readily soluble	1.35		
CN(C)C[C@H]1CCCC[C@]1(O)c1cccc(O)c1 [Example M1]		higher affinity				up to 6 times	200
